Results on nine compounds are retold here after patent publication US8188292B2, “Insecticidal N-substituted (heteroaryl)alkyl sulfilimines” (Dow AgroSciences, LLC, priority 2006, dated 2012).

SMILES strings stand for the structures.

For assay [1], the system named is cotton aphid (Aphis gossypii). Put plainly: Insecticidal test for cotton aphid in foliar spray assay. It counts as in vivo. On the set-up: key to CA 50: % control at 50 ppm against cotton aphid in foliar spray tests: A: 90-100; B: 80-89; C: 70-79; D: 60-69; E: 50-59; F: Less than 50; G: Inactive; H: Not tested. The following applies: foliar spray on squash cotyledons, 3 days, Corrected % Control (Abbott); for pest or weed control at 50 ppm / pest or weed control at 200 ppm: Aphis gossypii, 72 h; for pest or weed control at 50 ppm: read-out: CA 50: % control at 50 ppm against cotton aphid in foliar spray tests; for pest or weed control at 200 ppm: read-out: CA 200: % control at 200 ppm against cotton aphid in foliar spray tests. Here is the method: (§1) The compounds identified in the foregoing examples were tested against cotton aphid and green peach aphid using procedures described hereinafter. Insecticidal Test for Cotton Aphid (Aphis Gossypii) in Foliar Spray Assay Squash with fully expanded cotyledon leaves were trimmed to one cotyledon per plant and infested with cotton aphid (wingless adult and nymph) 1 day prior to chemical application. Each plant was examined before chemical application to ensure proper infestation (ca. 30-70 aphids per plant). Compounds (2 mg) were dissolved in 2 ml of acetone:methanol (1:1) solvent, forming stock solutions of 1000 ppm. The stock solutions were diluted 5× with 0.025% Tween 20 in H2O to obtain a solution at 200 ppm. Lower concentrations (50, 12.5 and 3.13 ppm) were prepared by making sequential 4× dilutions from the 200 ppm solution with a diluent consisting 80 parts of 0.025% Tween 20 in H2O and 20 parts of acetone:methanol (1:1). A hand-held Devilbiss sprayer was used to apply the spray solutions until runoff to both sides of the squash cotyledon leaves. Four plants (4 replications) were used for each concentration of each compound. Reference plants (solvent check) were sprayed with the diluent only. Treated plants were held in a holding room for 3 days at approximately 23° C. and 40% RH before the number of live aphids on each plant was recorded. Insecticidal activity was measured by Corrected % Control using Abbott's correction formula and presented in Table 1: Corrected % Control=100*(X−Y)/X • where X=No. of live aphids on solvent check plants • Y=No. of live aphids on treated plants Insecticidal Test for Green Peach Aphid (Myzus Persicae) in Foliar Spray Assay

Assay [2] has as its system green peach aphid (Myzus persicae). Put plainly: Insecticidal test for green peach aphid in foliar spray assay. It counts as in vivo. On the set-up: key to GPA 50: % control at 50 ppm against green peach aphid in foliar spray tests / GPA 200: % control at 200 ppm against green peach aphid in foliar spray tests: A: 90-100; B: 80-89; C: 70-79; D: 60-69; E: 50-59; F: Less than 50; G: Inactive; H: Not tested. The following applies: foliar spray on cabbage seedlings, 3 days, Corrected % Control (Abbott); for pest or weed control at 50 ppm / pest or weed control at 200 ppm: Myzus persicae, 72 h; for pest or weed control at 50 ppm: read-out: GPA 50: % control at 50 ppm against green peach aphid in foliar spray tests; for pest or weed control at 200 ppm: read-out: GPA 200: % control at 200 ppm against green peach aphid in foliar spray tests. The procedure: as §1, with “hereinafter.” for “hereinafter. Insecticidal Test for Cotton Aphid (Aphis Gossypii) in Foliar Spray Assay”, “Assay Cabbage seedlings grown in 3-inch pots, with 2-3 small (3-5 cm) true leaves, were used as test substrate. The seedlings were infested with 20-50 green peach aphids (wingless adult and nymph) 2-3 days prior to chemical application. Four seedlings were used for each treatment. Compounds (2 mg) were dissolved in 2 ml of acetone:methanol (1:1) solvent, forming stock solutions of 1000 ppm. The stock solutions were diluted 5× with 0.025% Tween 20 in H2O to obtain a solution at 200 ppm. Lower concentrations (50, 12.5 and 3.13 ppm) were prepared by making sequential 4× dilutions from the 200 ppm solution with a diluent consisting 80 parts of 0.025% Tween 20 in H2O and 20 parts of acetone: methanol (1:1). A hand-held Devilbiss sprayer was used for spraying a solution to both sides of cabbage leaves until runoff. Reference plants (solvent check) were sprayed with the diluent only. Treated plants were held in a holding room for three days at approximately 23° C. and 40% RH prior to grading. Evaluation was conducted by counting the number of live aphids per plant under a microscope. Insecticidal activity was measured by using Abbott's correction formula: Corrected % Control=100*(X−Y)/X • where X=No. of live aphids on solvent check plants • Y=No. of live aphids on treated plants The Corrected % Control values from assays are given in Table 1.” for “Assay”

For `C/S(Cc1cnc(C(F)(F)F)s1)=N\C#N` (stereo not drawn) [Compound 5, (1E)-methyl {[2-(trifluoromethyl)-1,3-thiazol-5-yl]methyl}-λ^4-sulfanylidenecyanamide], the pest or weed control at 50 ppm in assay [1] (50 ppm) fell in the range of 50 to 59%. Further, the pest or weed control at 200 ppm in assay [1] was in the range of 90 to 100%. Besides, in assay [2], the “GPA 50: % control at 50 ppm against green peach aphid in foliar spray tests” value (“GPA 50: % control at 50 ppm” below) is reported as “G” and the “GPA 200: % control at 200 ppm against green peach aphid in foliar spray tests” value is on record as “G”.
Regarding `C/S(Cc1cnc(Cl)c(F)c1)=N\C#N` (stereo not drawn) [Compound 7, [(5-fluoro-6-chloropyridin-3-yl)methyl](methyl)-λ^4-sulfanylidenecyanamide], the values for the pest or weed control at 50 ppm in assay [1] (50 ppm) and in assay [2] were 90 to 100% and 60 to 69%, respectively. Also, the pest or weed control at 200 ppm in assay [1] lay in the range of 90 to 100%; in assay [2] it was 70 to 79%.
Consider `CS(=NC#N)[C@@H]1CCC[C@@H]1c1ccc(Cl)nc1` (relative stereo) [Compound 9, cis-[2-(6-chloropyridin-3-yl)cyclopentyl](methyl)-λ^4-sulfanylidenecyanamide], for which, in assay [1] (50 ppm), the “CA 50: % control at 50 ppm against cotton aphid in foliar spray tests” value is on record as “G”. In addition, the pest or weed control at 200 ppm in assay [1] was in the range of 60 to 69%. In assay [2], the “GPA 50: % control at 50 ppm” value is reported as “G” and the pest or weed control at 200 ppm was in the range of 60 to 69%.
`CC(c1cnc(Cl)nc1)/S(C)=N/C#N` (stereo not drawn) [Compound 4, (1E)-[1-(2-chloropyrimidin-5-yl)ethyl](methyl)-λ^4-sulfanylidenecyanamide]: in assay [1] (50 ppm), the pest or weed control at 50 ppm lay within 70 to 79%. Besides, the pest or weed control at 200 ppm in assay [1] was 90 to 100%; in assay [2] it was less than 50%. In addition, the “GPA 50: % control at 50 ppm” value in assay [2] was “G”.
For `CC(c1ccc(C(Cl)(Cl)Cl)nc1)/S(C)=N/C#N` (stereo not drawn) [Compound 3, {1-[6-(trichloromethyl)pyridin-3-yl]ethyl}(methyl)-λ^4-sulfanylidenecyanamide], the pest or weed control at 50 ppm in assay [1] (50 ppm) and in assay [2] was 90 to 100% each time. The pest or weed control at 200 ppm in assay [1] and in assay [2] was 90 to 100% each time.
With `CC(c1ccc(C(F)(F)Cl)nc1)/S(C)=N/C#N` (stereo not drawn) [Compound 2, (1-{6-[chloro(difluoro)methyl]pyridin-3-yl}ethyl)(methyl)-λ^4-sulfanylidenecyanamide], the pest or weed control at 50 ppm in assay [1] (50 ppm) and in assay [2] was 90 to 100% each time. Moreover, the pest or weed control at 200 ppm in assay [1] and in assay [2] was 90 to 100% each time.
Consider `N#C/N=S1/CCC(c2ccc(C(F)(F)F)nc2)C1` (stereo not drawn) [Compound 6, 3-[6-(trifluoromethyl)pyridin-3-yl]tetrahydro-1H-1λ^4-thien-1-ylidenecyanamide], for which the pest or weed control at 50 ppm in assay [1] (50 ppm) fell in the range of 90 to 100%; in assay [2] it was 50 to 59%. Further, the pest or weed control at 200 ppm in assay [1] lay within 90 to 100%; in assay [2], 70 to 79%.
Turning to `C/S(Cc1ccc(C(C)(F)F)nc1)=N\C#N` (stereo not drawn) [Compound 8], the values for the pest or weed control at 50 ppm in assay [1] (50 ppm) and in assay [2] were 90 to 100% and 60 to 69%, respectively. Further, the pest or weed control at 200 ppm in assay [1] and in assay [2] was 90 to 100% each time.
For the compound `C/S(Cc1ccc(C(F)(F)F)nc1)=N\C#N` (stereo not drawn) [Compound 1], in assay [1] (50 ppm), the pest or weed control at 50 ppm was 60 to 69%. Moreover, the pest or weed control at 200 ppm in assay [1] fell in the range of 90 to 100%. In assay [2], the “GPA 50: % control at 50 ppm” value is “G” and the “GPA 200: % control at 200 ppm against green peach aphid in foliar spray tests” value is given as “G”.
